Reference: publication PMC5392334, “Discovery and characterization of a novel irreversible EGFR mutants selective and potent kinase inhibitor CHMFL-EGFR-26 with a distinct binding mode” (Oncotarget, 2017)

Tests used:
[1] = target: T1, PIK3CA(E545A) (Homo sapiens, UniProt P42336, E545A); assay: KinomeScan; type: binding; details: read-out: % control
T1 construct: purchased DiscoveRx KINOMEscan

[2] = target: T2, CDK11 (Homo sapiens, UniProt Q9BWU1); assay: KinomeScan; type: binding; details: read-out: % control
T2 construct: purchased DiscoveRx KINOMEscan

[3] = target: T3, TGFBR2 (Homo sapiens, UniProt P37173); assay: KinomeScan; type: binding; details: read-out: % control
T3 construct: purchased DiscoveRx KINOMEscan

[4] = target: T4, SGK3 (Homo sapiens, UniProt Q96BR1); assay: KinomeScan; type: binding; details: read-out: % control
T4 construct: purchased DiscoveRx KINOMEscan

[5] = target: T5, KIT(V559D,T670I) (Homo sapiens, UniProt P10721, T670I/V559D); assay: KinomeScan; type: binding; details: read-out: % control
T5 construct: purchased DiscoveRx KINOMEscan

[6] = target: T6, ABL1(Q252H)-nonphosphorylated (Homo sapiens, UniProt P00519, Q252H); assay: KinomeScan; type: binding; details: read-out: % control
T6 construct: purchased DiscoveRx KINOMEscan

[7] = target: T7, TTK (Homo sapiens, UniProt P33981); assay: KinomeScan; type: binding; details: read-out: % control
T7 construct: purchased DiscoveRx KINOMEscan

[8] = target: T8, CSNK1A1 (Homo sapiens, UniProt P48729); assay: KinomeScan; type: binding; details: read-out: % control
T8 construct: purchased DiscoveRx KINOMEscan

[9] = target: T9, DAPK1 (Homo sapiens, UniProt P53355); assay: KinomeScan; type: binding; details: read-out: % control
T9 construct: purchased DiscoveRx KINOMEscan

[10] = target: T10, IRAK3 (Homo sapiens, UniProt Q9Y616); assay: KinomeScan; type: binding; details: read-out: % control
T10 construct: purchased DiscoveRx KINOMEscan

[11] = tested on: BaF3-TEL-EGFR; assay: Anti-proliferation, BaF3 isogenic cell lines (CellTiter-Glo); type: cell-based; details: Mus musculus, 72 hours, triplet testing
[12] = target: T11, IRAK4 (Homo sapiens, UniProt Q9NWZ3); assay: KinomeScan; type: binding; details: read-out: % control
T11 construct: purchased DiscoveRx KINOMEscan

[13] = target: T12, PRP4 (Homo sapiens, UniProt Q13523); assay: KinomeScan; type: binding; details: read-out: % control
T12 construct: purchased DiscoveRx KINOMEscan

[14] = target: T13, PIK3CA(H1047Y) (Homo sapiens, UniProt P42336, H1047Y); assay: KinomeScan; type: binding; details: read-out: % control
T13 construct: purchased DiscoveRx KINOMEscan

[15] = target: T14, KIT(L576P) (Homo sapiens, UniProt P10721, L576P); assay: KinomeScan; type: binding; details: read-out: % control
T14 construct: purchased DiscoveRx KINOMEscan

[16] = target: T15, RSK4(Kin.Dom.1-N-terminal) (Homo sapiens, UniProt Q9UK32); assay: KinomeScan; type: binding; details: read-out: % control
T15 construct: RSK4(Kin.Dom.1-N-terminal); purchased DiscoveRx KINOMEscan

[17] = target: T16, FER (Homo sapiens, UniProt P16591); assay: KinomeScan; type: binding; details: read-out: % control
T16 construct: purchased DiscoveRx KINOMEscan

[18] = target: T17, TRPM6 (Homo sapiens, UniProt Q9BX84); assay: KinomeScan; type: binding; details: read-out: % control
T17 construct: purchased DiscoveRx KINOMEscan

[19] = target: T18, TXK (Homo sapiens, UniProt P42681); assay: KinomeScan; type: binding; details: read-out: % control
T18 construct: purchased DiscoveRx KINOMEscan

[20] = target: T19, SRC (Homo sapiens, UniProt P12931); assay: KinomeScan; type: binding; details: read-out: % control
T19 construct: purchased DiscoveRx KINOMEscan

[21] = target: T20, PKNB(M.tuberculosis) (Mycobacterium tuberculosis, UniProt P9WI81); assay: KinomeScan; type: binding; details: read-out: % control
T20 construct: purchased DiscoveRx KINOMEscan

[22] = target: T21, TNNI3K (Homo sapiens, UniProt Q59H18); assay: KinomeScan; type: binding; details: read-out: % control
T21 construct: purchased DiscoveRx KINOMEscan

[23] = target: T22, INSR (Homo sapiens, UniProt P06213); assay: KinomeScan; type: binding; details: read-out: % control
T22 construct: purchased DiscoveRx KINOMEscan

[24] = target: T23, BMPR1A (Homo sapiens, UniProt P36894); assay: KinomeScan; type: binding; details: read-out: % control
T23 construct: purchased DiscoveRx KINOMEscan

[25] = target: T24, LIMK1 (Homo sapiens, UniProt P53667); assay: KinomeScan; type: binding; details: read-out: % control
T24 construct: purchased DiscoveRx KINOMEscan

[26] = target: T25, MAP4K4 (Homo sapiens, UniProt O95819); assay: KinomeScan; type: binding; details: read-out: % control
T25 construct: purchased DiscoveRx KINOMEscan

[27] = target: T26, CAMK1G (Homo sapiens, UniProt Q96NX5); assay: KinomeScan; type: binding; details: read-out: % control
T26 construct: purchased DiscoveRx KINOMEscan

[28] = target: T27, CHEK2 (Homo sapiens, UniProt O96017); assay: KinomeScan; type: binding; details: read-out: % control
T27 construct: purchased DiscoveRx KINOMEscan

[29] = target: T28, FLT3(N841I) (Homo sapiens, UniProt P36888, N841I); assay: KinomeScan; type: binding; details: read-out: % control
T28 construct: purchased DiscoveRx KINOMEscan

[30] = target: T29, PHKG2 (Homo sapiens, UniProt P15735); assay: KinomeScan; type: binding; details: read-out: % control
T29 construct: purchased DiscoveRx KINOMEscan

[31] = target: T30, BRK (Homo sapiens, UniProt Q13882); assay: KinomeScan; type: binding; details: read-out: % control
T30 construct: purchased DiscoveRx KINOMEscan

[32] = target: T31, FGFR4 (Homo sapiens, UniProt P22455); assay: KinomeScan; type: binding; details: read-out: % control
T31 construct: purchased DiscoveRx KINOMEscan

[33] = tested on: BaF3-FL-EGFR-del19-T790M-C797S; assay: Anti-proliferation, BaF3 isogenic cell lines (CellTiter-Glo); type: cell-based; details: Mus musculus, 72 hours, triplet testing
[34] = target: T32, RSK4(Kin.Dom.2-C-terminal) (Homo sapiens, UniProt Q9UK32); assay: KinomeScan; type: binding; details: read-out: % control
T32 construct: RSK4(Kin.Dom.2-C-terminal); purchased DiscoveRx KINOMEscan

[35] = target: T33, PFTAIRE2 (Homo sapiens, UniProt Q96Q40); assay: KinomeScan; type: binding; details: read-out: % control
T33 construct: purchased DiscoveRx KINOMEscan

[36] = target: T34, YSK1 (Homo sapiens, UniProt O00506); assay: KinomeScan; type: binding; details: read-out: % control
T34 construct: purchased DiscoveRx KINOMEscan

[37] = target: T35, PAK3 (Homo sapiens, UniProt O75914); assay: KinomeScan; type: binding; details: read-out: % control
T35 construct: purchased DiscoveRx KINOMEscan

[38] = target: T36, FLT3(D835H) (Homo sapiens, UniProt P36888, D835H); assay: KinomeScan; type: binding; details: read-out: % control
T36 construct: purchased DiscoveRx KINOMEscan

[39] = target: T37, RIOK1 (Homo sapiens, UniProt Q9BRS2); assay: KinomeScan; type: binding; details: read-out: % control
T37 construct: purchased DiscoveRx KINOMEscan

[40] = target: T38, RPS6KA4(Kin.Dom.1-N-terminal) (Homo sapiens, UniProt O75676); assay: KinomeScan; type: binding; details: read-out: % control
T38 construct: RPS6KA4(Kin.Dom.1-N-terminal); purchased DiscoveRx KINOMEscan

[41] = target: T39, GRK7 (Homo sapiens, UniProt Q8WTQ7); assay: KinomeScan; type: binding; details: read-out: % control
T39 construct: purchased DiscoveRx KINOMEscan

T32 sequence (Q9UK32 401-745 limits assumed): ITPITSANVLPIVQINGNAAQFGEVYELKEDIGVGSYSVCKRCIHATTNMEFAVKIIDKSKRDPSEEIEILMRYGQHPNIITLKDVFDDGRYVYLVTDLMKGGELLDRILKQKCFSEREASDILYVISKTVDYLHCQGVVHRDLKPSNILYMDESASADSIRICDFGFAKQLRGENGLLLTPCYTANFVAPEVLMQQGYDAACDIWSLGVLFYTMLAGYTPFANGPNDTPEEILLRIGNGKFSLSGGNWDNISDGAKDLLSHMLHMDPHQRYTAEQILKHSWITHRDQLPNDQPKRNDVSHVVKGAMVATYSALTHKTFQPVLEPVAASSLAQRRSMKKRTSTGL
T31 sequence (P22455 22-802): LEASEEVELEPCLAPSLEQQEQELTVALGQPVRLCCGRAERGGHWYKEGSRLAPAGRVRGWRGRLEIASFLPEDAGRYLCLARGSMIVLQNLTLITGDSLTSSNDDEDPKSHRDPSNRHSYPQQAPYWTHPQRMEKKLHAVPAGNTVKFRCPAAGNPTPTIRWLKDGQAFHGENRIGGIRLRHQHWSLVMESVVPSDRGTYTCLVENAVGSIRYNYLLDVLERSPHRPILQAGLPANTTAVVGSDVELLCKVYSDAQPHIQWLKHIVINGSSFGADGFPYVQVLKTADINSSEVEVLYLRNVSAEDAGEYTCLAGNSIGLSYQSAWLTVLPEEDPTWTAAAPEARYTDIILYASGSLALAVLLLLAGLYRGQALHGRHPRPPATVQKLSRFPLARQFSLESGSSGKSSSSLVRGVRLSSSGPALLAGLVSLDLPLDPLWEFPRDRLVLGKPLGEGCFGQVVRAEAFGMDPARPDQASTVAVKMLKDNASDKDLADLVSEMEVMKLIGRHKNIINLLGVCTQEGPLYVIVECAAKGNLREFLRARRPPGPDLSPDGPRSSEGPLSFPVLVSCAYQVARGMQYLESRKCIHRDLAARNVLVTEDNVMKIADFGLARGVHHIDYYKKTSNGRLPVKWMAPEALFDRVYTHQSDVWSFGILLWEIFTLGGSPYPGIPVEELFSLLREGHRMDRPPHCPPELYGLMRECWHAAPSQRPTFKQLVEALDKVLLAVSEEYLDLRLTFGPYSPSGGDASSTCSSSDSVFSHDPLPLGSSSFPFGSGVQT
T9 sequence (P53355 whole entry): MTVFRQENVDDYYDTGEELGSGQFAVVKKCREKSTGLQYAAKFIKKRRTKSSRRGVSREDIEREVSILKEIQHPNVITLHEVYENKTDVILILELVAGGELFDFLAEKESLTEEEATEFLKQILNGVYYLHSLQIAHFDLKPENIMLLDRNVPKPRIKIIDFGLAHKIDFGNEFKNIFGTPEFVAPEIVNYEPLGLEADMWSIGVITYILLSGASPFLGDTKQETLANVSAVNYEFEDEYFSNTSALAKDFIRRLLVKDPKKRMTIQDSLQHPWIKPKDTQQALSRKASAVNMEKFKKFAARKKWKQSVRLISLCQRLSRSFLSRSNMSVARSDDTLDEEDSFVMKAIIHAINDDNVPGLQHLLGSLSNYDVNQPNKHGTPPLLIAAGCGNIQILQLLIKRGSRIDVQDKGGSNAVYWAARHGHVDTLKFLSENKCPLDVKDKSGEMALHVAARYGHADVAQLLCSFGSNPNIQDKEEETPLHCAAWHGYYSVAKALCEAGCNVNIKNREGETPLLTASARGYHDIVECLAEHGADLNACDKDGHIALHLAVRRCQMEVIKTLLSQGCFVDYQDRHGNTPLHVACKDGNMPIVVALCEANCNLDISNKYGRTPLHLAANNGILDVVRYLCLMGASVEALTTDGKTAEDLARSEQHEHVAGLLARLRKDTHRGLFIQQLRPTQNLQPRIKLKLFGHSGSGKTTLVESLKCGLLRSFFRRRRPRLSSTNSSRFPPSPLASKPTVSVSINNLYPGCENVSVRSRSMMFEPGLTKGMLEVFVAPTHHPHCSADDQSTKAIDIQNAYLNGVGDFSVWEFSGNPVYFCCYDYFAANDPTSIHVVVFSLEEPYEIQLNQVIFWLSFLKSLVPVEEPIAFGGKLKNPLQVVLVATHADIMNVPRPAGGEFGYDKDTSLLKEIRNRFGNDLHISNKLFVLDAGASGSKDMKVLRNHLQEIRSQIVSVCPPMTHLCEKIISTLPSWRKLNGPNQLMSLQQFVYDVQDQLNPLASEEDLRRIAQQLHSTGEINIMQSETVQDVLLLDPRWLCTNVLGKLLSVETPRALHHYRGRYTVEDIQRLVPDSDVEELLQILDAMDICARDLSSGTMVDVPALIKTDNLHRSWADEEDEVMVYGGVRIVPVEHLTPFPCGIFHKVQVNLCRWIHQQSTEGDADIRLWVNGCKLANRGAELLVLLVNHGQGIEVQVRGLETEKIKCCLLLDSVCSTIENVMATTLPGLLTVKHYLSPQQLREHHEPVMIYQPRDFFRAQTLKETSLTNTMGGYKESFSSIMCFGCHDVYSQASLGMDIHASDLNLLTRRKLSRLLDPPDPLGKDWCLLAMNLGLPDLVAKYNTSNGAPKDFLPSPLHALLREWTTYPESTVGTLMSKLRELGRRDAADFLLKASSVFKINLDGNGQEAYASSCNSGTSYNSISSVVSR
T30 sequence (Q13882 whole entry): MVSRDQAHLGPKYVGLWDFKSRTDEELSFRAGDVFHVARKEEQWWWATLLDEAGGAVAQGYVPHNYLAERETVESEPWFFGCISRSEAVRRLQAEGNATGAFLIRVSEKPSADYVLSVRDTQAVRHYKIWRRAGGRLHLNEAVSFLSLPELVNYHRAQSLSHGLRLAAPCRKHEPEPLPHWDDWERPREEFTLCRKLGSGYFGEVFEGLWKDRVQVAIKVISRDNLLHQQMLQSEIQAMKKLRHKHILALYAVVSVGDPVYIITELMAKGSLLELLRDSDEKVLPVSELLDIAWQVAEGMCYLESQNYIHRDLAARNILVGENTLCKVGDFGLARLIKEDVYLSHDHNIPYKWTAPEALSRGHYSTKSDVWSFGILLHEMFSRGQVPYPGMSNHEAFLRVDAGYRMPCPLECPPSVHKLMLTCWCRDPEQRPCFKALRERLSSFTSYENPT
T23 sequence (P36894 24-532): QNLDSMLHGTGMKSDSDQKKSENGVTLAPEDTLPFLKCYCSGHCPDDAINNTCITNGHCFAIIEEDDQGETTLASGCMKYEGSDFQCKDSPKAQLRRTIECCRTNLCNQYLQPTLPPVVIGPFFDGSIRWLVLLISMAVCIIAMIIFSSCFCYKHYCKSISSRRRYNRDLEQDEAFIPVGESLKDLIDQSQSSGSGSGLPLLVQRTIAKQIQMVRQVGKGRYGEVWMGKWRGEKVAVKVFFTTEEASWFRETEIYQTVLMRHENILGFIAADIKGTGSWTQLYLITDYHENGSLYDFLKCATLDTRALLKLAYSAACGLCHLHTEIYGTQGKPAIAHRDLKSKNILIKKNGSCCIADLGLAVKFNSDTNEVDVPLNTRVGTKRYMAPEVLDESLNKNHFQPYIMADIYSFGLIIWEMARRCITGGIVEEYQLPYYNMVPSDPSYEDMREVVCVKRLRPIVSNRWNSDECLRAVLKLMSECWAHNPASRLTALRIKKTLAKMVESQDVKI
T16 sequence (P16591 whole entry): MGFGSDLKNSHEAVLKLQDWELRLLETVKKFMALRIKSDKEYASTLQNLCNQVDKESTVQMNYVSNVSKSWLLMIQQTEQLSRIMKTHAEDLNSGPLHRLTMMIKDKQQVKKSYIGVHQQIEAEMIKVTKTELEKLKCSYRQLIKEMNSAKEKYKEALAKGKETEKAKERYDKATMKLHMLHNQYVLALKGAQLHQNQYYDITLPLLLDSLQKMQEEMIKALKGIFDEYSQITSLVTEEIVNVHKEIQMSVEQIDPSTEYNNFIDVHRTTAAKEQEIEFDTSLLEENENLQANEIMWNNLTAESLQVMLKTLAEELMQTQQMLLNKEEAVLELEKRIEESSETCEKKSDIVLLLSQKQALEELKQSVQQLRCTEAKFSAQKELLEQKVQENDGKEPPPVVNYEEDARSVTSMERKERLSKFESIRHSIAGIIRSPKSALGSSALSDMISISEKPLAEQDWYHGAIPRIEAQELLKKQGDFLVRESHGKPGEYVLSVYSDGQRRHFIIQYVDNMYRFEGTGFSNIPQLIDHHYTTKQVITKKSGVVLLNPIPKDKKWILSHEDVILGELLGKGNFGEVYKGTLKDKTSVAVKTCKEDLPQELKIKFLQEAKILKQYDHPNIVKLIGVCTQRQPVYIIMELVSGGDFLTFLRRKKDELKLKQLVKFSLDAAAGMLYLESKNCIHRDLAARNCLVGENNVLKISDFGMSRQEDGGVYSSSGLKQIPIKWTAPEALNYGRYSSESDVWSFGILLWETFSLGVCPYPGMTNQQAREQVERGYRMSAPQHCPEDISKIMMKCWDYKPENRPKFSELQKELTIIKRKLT
T19 sequence (P12931 whole entry): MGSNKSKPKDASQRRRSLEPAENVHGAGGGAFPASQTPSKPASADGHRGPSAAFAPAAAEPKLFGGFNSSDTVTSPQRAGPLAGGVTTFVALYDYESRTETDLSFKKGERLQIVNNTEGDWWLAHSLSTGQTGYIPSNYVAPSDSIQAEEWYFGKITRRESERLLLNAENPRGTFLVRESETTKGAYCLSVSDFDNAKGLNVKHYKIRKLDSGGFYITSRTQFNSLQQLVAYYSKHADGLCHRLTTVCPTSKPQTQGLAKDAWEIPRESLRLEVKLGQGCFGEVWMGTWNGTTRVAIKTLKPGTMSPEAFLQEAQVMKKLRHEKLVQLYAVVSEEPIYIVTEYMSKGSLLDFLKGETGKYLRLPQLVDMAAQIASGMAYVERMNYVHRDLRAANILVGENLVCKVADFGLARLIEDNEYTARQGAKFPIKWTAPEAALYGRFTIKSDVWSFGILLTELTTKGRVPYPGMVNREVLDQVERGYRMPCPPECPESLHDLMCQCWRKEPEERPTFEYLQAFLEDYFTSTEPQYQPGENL

Work on `C=CC(=O)N1CCC[C@@H](n2nc(-c3ccc(OCc4cccc(C)n4)c(Cl)c3)c3c(N)ncnc32)C1` [CHMFL-EGFR-26] yielded a remaining binding at 1 µM [1] of 100%, a remaining binding at 1 µM [2] of 100% and a remaining binding at 1 µM [3] of 100%. The remaining binding at 1 µM [4] was 83%, the remaining binding at 1 µM [5] was 100% and the remaining binding at 1 µM [6] was 100%. It also gave a remaining binding at 1 µM [7] of 95%, a remaining binding at 1 µM [8] of 100% and a remaining binding at 1 µM [9] of 77%. It also gave a remaining binding at 1 µM [10] of 94%, a GI50 [11] of 5.4 µM and a remaining binding at 1 µM [12] of 100%. The remaining binding at 1 µM [13] was 78%, the remaining binding at 1 µM [14] was 100% and the remaining binding at 1 µM [15] was 91%. For the same compound, the remaining binding at 1 µM [16] was 100%, the remaining binding at 1 µM [17] was 56% and the remaining binding at 1 µM [18] was 100%. For the same compound, the remaining binding at 1 µM [19] was 15%, the remaining binding at 1 µM [20] was 100% and the remaining binding at 1 µM [21] was 100%. For the same compound, the remaining binding at 1 µM [22] was 89%, the remaining binding at 1 µM [23] was 100% and the remaining binding at 1 µM [24] was 100%. The remaining binding at 1 µM [25] was 99%, the remaining binding at 1 µM [26] was 46% and the remaining binding at 1 µM [27] was 97%. For the same compound, the remaining binding at 1 µM [28] was 88%, the remaining binding at 1 µM [29] was 93% and the remaining binding at 1 µM [30] was 100%. The remaining binding at 1 µM [31] was 26%, the remaining binding at 1 µM [32] was 100% and the GI50 [33] was 2.1 µM. For the same compound, the remaining binding at 1 µM [34] was 72%, the remaining binding at 1 µM [35] was 97% and the remaining binding at 1 µM [36] was 20%. The remaining binding at 1 µM [37] was 62%, the remaining binding at 1 µM [38] was 100% and the remaining binding at 1 µM [39] was 90%. For the same compound, the remaining binding at 1 µM [40] was 11% and the remaining binding at 1 µM [41] was 100%.
